Test results published in US12469580B2, “In silico discovery of effective antimicrobials” (MASSACHUSETTS INSTITUTE OF TECHOLOGY, priority 2019, dated 2025).
≈ marks a conversion by molar mass, not a printed value. Entries after “also recorded” stand apart in the source; their conditions may differ.

Legend:
[1] = test system: E. coli MC1061; assay: DiSC3(5) assay, E. coli; assay type: cell-based; conditions: early-log cells in buffer
[2] = test system: C. difficile 630; assay: C. difficile mouse infection model; assay type: in vivo, C57BL/6 mice; conditions: for rate of C. difficile clearance from feces: halicin 15 mg/kg, metronidazole 50 mg/kg, vehicle 10% PEG 300
[3] = test system: E. coli strains harboring plasmid-borne antibiotic-resistance genes; assay type: cell-based
[4] = test system: E. coli; assay type: cell-based
[5] = test system: E. coli, S. aureus, Klebsiella pneumoniae, A. baumannii, and P. aeruginosa; assay: ZINC15 compound validation, growth inhibition against a range of pathogens; assay type: cell-based; conditions: LB media
[6] = test system: ciprofloxacin-resistant gyrA S83A mutant of BW25113; assay type: cell-based, E. coli
[7] = test system: E. coli in a metabolically repressed, antibiotic-tolerant state; assay: Bacterial cell killing assay, E. coli in nutrient-free buffer (PBS); assay type: cell-based
[8] = test system: E. coli BW25113; assay: Growth inhibition assay against E. coli; assay type: cell-based; conditions: Escherichia coli, rich growth conditions, read-out: minimum inhibitory concentration (MIC)
[9] = test system: M. tuberculosis H37Rv; assay: Growth inhibition of M. tuberculosis; assay type: cell-based; conditions: Mycobacterium tuberculosis, 7H9 medium, stated as 1×MIC
[10] = test system: A. baumannii CDC 288; assay: Growth inhibition of pan-resistant A. baumannii CDC 288 in vitro; assay type: cell-based; conditions: Acinetobacter baumannii, CDC288, A. baumannii strain 288 (CDC)
[11] = test system: C. difficile strain 630; assay: Growth inhibition of C. difficile 630 in vitro; assay type: cell-based; conditions: Clostridioides difficile; C. difficile strain 630, in vitro
[12] = test system: ΔnfsAΔnfsB E. coli; assay type: cell-based; conditions: deletion of nfsA and nfsB
[13] = test system: Carbapenem-resistant Enterobacteriaceae (CRE) clinical isolates; assay type: cell-based
[14] = test system: A. baumannii clinical isolates; assay: Growth inhibition of multidrug-resistant clinical isolates, A. baumannii; assay type: cell-based; conditions: 36 multidrug-resistant clinical isolates
[15] = test system: Pseudomonas aeruginosa clinical isolates; assay: Growth inhibition of multidrug-resistant clinical isolates, P. aeruginosa; assay type: cell-based; conditions: 36 multidrug-resistant clinical isolates
[16] = test system: E. coli persister cells; assay: Killing of E. coli persister cells after ampicillin treatment; assay type: cell-based; conditions: cells that remained after treatment with ampicillin
[17] = test system: M. tuberculosis; assay: Bacterial cell killing assay, M. tuberculosis in 7H9 media; assay type: cell-based, Mycobacterium tuberculosis; conditions: 16 μg/ml
[18] = test system: A. baumannii 288 cells; assay: Bacterial cell killing assay, A. baumannii CDC 288 in PBS; assay type: cell-based; conditions: metabolically repressed
[19] = test system: E. coli BW25113; assay: Evolution of resistance (serial passage, spontaneous suppressor generation); assay type: cell-based; conditions: 30 days serial passaging in liquid media; seven days on solid media
[20] = test system: S. aureus USA300; assay: Growth inhibition of S. aureus in pH-adjusted media; assay type: cell-based, Staphylococcus aureus
[21] = test system: E. coli; assay: Growth inhibition checkerboards of halicin in combination; assay type: cell-based
[22] = test system: daptomycin-resistant RN4220 strain (Δdsp1); assay type: cell-based, S. aureus
[23] = test system: A. baumannii CDC 288; assay: A. baumannii mouse wound infection model; assay type: in vivo, Balb/c mice; conditions: halicin 0.5% w/v topical, 25 hours post-infection
[24] = test system: E. coli; assay type: cell-based; remark: listed apart in the source
[25] = test system: MRSA; assay: Activity against MRSA; assay type: cell-based, Staphylococcus aureus
[26] = test system: E. coli; assay: Growth inhibition of E. coli in pH-adjusted or bicarbonate-supplemented media

Compound: polymyxin B [reference compound]
- DiSC3(5) fluorescence change, E. coli [1]: corresponding increase in fluorescence

Compound: Cc1ncc([N+](=O)[O-])n1CCO [Metronidazole, metronidazole, reference compound]
- rate of C. difficile clearance from feces [2]: did not result in enhanced rates of clearance relative to vehicle controls

Compound: C[C@H]1CN(c2cc3c(cc2[N+](=O)[O-])c(=O)c(C(=O)O)cn3C2CC2)CCN1N=Nc1ccc(S(N)(=O)=O)cc1 [ZINC000100032716, 1-Cyclopropyl-7-[(3S)-3-methyl-4-[(4-sulfamoylphenyl)diazenyl]piperazin-1-yl]-6-nitro-4-oxoquinoline-3-carboxylic acid]
- activity against E. coli harboring resistance determinants [3]: overcome an array of common resistance determinants
- impact of plasmid-borne fluoroquinolone resistance on MIC [3]: only weakly impacted; also recorded: minor increase in MIC
- bactericidal activity against E. coli [4]: bactericidal activity
- spectrum of growth inhibitory activity [5]: potent broad-spectrum activity
- impact of chromosomal resistance [6]: only weakly impacted
- smaller change in MIC between gyrA mutant and wildtype E. coli relative to ciprofloxacin ([6]; gyrA S83A vs BW25113): 4 fold

Compound: CC1(C)S[C@@H]2[C@H](NC(=O)[C@H](N)c3ccccc3)C(=O)N2[C@H]1C(=O)O [ampicillin, reference compound]
- bacterial cell killing, metabolically active E. coli [4]: efficacy against metabolically active cells
- bactericidal activity against metabolically repressed, antibiotic-tolerant E. coli [7]: unable to eradicate E. coli

Compound: Nc1nnc(Sc2ncc([N+](=O)[O-])s2)s1 [halicin, 5-[(5-nitro-1,3-thiazol-2-yl)sulfanyl]-1,3,4-thiadiazol-2-amine]
- MIC [8]: 2 mg/L (≈ 7.65 µM)
- MIC [9]: 16 mg/L (≈ 61.2 µM)
- MIC [10]: 1 mg/L (≈ 3.83 µM)
- MIC [11]: 0.5 mg/L (≈ 1.91 µM)
- change in MIC in the presence of resistance gene relative to antibiotic-susceptible parent strains [3]: No change in halicin MIC
- change in MIC in nitrofurantoin-resistant E. coli [12]: did not change
- growth inhibition of CRE clinical isolates [13]: strong growth inhibitory activity
- growth inhibition of A. baumannii clinical isolates [14]: strong growth inhibitory activity
- growth inhibition of P. aeruginosa clinical isolates [15]: lack of efficacy
- bacterial cell killing, metabolically active E. coli [4]: bacterial cell killing was observed
- bactericidal activity against metabolically repressed, antibiotic-tolerant E. coli [7]: retained bactericidal activity against tolerant cells
- eradication of E. coli persister cells [16]: able to eradicate E. coli persister cells
- bactericidal activity against M. tuberculosis [17]: rapidly bactericidal
- killing of A. baumannii 288 in antibiotic-tolerant conditions [18]: able to sterilize A. baumannii 288 cells
- evolution of resistant mutants [19]: not possible to isolate spontaneous suppressor mutants
- potency as a function of media pH, Staphylococcus aureus [20]: halicin potency decreased as pH increased
- DiSC3(5) fluorescence change, E. coli [1]: immediate decrease in DiSC3(5) fluorescence in a dose-dependent manner
- interaction with kanamycin ([21]; checkerboard): synergized with kanamycin
- interaction with tetracycline ([21]; checkerboard): antagonized the activity of tetracycline
- interaction with Fe^3+ (FeCl3) ([21]; increasing concentrations of environmental Fe^3+): enhanced potency of halicin
- cross-resistance in daptomycin-resistant S. aureus [22]: did not confer cross-resistance to halicin
- bacterial load of wound tissue, one mouse [23]: ≈ 10^5 CFU/g
- bacterial load of wound tissue, 5 of the 6 mice ([23]; below the limit of detection): less than 10^3 CFU/g
- mice sterilized after 72 hours of treatment ([2]; 15 mg/kg gavage every 24 hours): 3 out of 4
- mice sterilized after 96 hours of treatment ([2]; 15 mg/kg gavage every 24 hours): 4 out of 4
- mice free of infection at 96 hours after treatment ([2]; 15 mg/kg, n=4): 100%
- rate of C. difficile clearance from feces [2]: clearance from feces at a greater rate than vehicle or the antibiotic metronidazole
- expression of cell motility genes [24]: rapid downregulation of genes involved in cell motility
- expression of iron homeostasis genes ([24]; sub-lethal concentrations): upregulation of genes required for iron homeostasis
- activity against MRSA [25]: potent activity
- potency as a function of media pH, E. coli [26]: halicin potency decreased as pH increased
- effect of sodium bicarbonate on growth inhibition ([26]; 25 mM sodium bicarbonate in growth medium): antagonized the action of halicin
